Results reported in paper PMC9481570, “A small molecule antagonist of SMN disrupts the interaction between SMN and RNAP II” (Nature Communications, 2022).
Values joined by “and” are separate entries in the source; they are usually repeats but may differ in a detail not shown here. Equal entries are not always repeated.

What was measured:
Experiment in all cases: Affinity-purification and mass spectrometry (AP-MS) chemical proteomics, all proteins;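 on Difference: 200 µM free competitor with 20 µM biotin probe overnight in lysate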
Assay type in all cases: binding
[1] = biological target: T1, proteins displaced from immobilized biotin-Cmpd 1 pulldowns (U2OS cell lysate) (Homo sapiens, UniProt Q9BVJ6); details: GN=UTP14A (Q9BVJ6)
T1 construct: endogenous in cells; host or cells: U2OS
T1 sequence (Q9BVJ6 whole entry): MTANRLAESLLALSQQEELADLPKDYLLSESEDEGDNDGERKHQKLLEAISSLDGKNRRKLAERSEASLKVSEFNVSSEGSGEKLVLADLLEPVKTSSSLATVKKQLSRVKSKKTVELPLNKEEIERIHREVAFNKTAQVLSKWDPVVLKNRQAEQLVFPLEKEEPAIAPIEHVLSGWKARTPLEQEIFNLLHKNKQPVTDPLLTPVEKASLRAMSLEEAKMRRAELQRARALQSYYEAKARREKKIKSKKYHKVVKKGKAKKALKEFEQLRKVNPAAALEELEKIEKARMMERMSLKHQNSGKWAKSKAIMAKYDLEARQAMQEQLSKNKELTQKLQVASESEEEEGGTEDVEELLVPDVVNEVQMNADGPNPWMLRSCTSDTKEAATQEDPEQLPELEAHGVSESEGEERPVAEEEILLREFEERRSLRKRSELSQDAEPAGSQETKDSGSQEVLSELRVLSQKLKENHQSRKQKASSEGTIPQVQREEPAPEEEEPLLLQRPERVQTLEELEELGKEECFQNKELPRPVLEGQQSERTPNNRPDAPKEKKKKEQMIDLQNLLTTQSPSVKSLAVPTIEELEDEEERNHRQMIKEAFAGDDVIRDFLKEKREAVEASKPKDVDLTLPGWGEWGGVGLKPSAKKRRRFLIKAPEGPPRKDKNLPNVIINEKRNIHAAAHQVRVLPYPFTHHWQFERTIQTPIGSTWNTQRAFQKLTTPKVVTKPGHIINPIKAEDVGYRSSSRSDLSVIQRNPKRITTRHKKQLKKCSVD

[2] = biological target: T2, proteins displaced from immobilized biotin-Cmpd 1 pulldowns (U2OS cell lysate) (Homo sapiens, UniProt O75223); details: GN=GGCT (O75223)
T2 construct: endogenous in cells; host or cells: U2OS
T2 sequence (O75223 whole entry): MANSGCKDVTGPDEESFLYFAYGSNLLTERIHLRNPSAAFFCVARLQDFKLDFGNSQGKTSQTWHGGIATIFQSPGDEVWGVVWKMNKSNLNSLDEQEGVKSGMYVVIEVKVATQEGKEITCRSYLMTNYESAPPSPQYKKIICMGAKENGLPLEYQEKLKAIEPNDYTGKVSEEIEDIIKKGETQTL

[3] = biological target: T3, proteins displaced from immobilized biotin-Cmpd 1 pulldowns (U2OS cell lysate) (Homo sapiens, UniProt Q9UN81); details: GN=L1RE1 (Q9UN81)
T3 construct: endogenous in cells; host or cells: U2OS
T3 sequence (Q9UN81 whole entry): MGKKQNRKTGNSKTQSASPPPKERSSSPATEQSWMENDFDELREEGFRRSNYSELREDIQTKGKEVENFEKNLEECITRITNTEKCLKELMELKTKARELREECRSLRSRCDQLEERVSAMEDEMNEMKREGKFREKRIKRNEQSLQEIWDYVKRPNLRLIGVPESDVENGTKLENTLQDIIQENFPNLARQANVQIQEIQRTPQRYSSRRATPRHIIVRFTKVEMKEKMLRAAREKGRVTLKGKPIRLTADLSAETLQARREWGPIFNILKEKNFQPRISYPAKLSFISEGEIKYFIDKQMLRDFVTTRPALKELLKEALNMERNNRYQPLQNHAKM

[4] = biological target: T4, proteins displaced from immobilized biotin-Cmpd 1 pulldowns (U2OS cell lysate) (Homo sapiens, UniProt Q96AE4); details: GN=FUBP1 (Q96AE4)
T4 construct: endogenous in cells; host or cells: U2OS
T4 sequence (Q96AE4 whole entry): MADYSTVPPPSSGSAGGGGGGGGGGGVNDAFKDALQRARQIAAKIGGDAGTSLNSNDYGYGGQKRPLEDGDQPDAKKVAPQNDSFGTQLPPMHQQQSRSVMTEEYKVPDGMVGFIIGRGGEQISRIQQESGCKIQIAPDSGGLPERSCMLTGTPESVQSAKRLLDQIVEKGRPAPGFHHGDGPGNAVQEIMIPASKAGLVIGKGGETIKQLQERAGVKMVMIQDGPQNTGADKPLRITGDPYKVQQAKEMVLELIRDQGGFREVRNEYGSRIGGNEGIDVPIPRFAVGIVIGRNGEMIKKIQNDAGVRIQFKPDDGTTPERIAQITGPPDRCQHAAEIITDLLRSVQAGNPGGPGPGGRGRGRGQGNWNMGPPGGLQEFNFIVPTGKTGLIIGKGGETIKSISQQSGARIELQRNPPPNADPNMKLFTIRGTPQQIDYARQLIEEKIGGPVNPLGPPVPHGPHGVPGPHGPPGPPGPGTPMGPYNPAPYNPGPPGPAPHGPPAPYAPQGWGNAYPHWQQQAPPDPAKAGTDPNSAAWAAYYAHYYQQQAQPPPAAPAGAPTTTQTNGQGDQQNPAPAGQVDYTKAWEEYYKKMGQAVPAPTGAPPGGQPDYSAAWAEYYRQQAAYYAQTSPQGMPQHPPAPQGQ

[5] = biological target: T5, proteins displaced from immobilized biotin-Cmpd 1 pulldowns (U2OS cell lysate) (Homo sapiens, UniProt Q6ZVX7); details: GN=NCCRP1 (Q6ZVX7)
T5 construct: endogenous in cells; host or cells: U2OS
T5 sequence (Q6ZVX7 whole entry): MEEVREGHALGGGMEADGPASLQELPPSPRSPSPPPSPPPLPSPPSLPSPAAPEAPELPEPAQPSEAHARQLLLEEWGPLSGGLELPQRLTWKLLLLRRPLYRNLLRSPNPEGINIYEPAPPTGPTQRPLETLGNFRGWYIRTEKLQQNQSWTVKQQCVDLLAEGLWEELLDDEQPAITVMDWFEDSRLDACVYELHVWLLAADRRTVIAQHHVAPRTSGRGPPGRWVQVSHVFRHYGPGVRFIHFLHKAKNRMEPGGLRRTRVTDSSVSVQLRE

[6] = biological target: T6, proteins displaced from immobilized biotin-Cmpd 1 pulldowns (U2OS cell lysate) (Homo sapiens, UniProt P05109); details: GN=S100A8 (P05109)
T6 construct: endogenous in cells; host or cells: U2OS
T6 sequence (P05109 whole entry): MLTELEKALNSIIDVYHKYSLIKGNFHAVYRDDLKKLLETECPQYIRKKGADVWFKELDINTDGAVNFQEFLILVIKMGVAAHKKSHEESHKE

[7] = biological target: T7, proteins displaced from immobilized biotin-Cmpd 1 pulldowns (U2OS cell lysate) (Homo sapiens, UniProt Q04837); details: GN=SSBP1 (Q04837)
T7 construct: endogenous in cells; host or cells: U2OS
T7 sequence (Q04837 17-148): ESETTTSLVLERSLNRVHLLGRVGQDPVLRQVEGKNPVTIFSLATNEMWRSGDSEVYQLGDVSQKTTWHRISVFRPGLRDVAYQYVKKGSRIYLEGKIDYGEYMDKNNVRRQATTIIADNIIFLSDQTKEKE

[8] = biological target: T8, proteins displaced from immobilized biotin-Cmpd 1 pulldowns (U2OS cell lysate) (Homo sapiens, UniProt P47756); details: GN=CAPZB (P47756)
T8 construct: endogenous in cells; host or cells: U2OS
T8 sequence (P47756 whole entry): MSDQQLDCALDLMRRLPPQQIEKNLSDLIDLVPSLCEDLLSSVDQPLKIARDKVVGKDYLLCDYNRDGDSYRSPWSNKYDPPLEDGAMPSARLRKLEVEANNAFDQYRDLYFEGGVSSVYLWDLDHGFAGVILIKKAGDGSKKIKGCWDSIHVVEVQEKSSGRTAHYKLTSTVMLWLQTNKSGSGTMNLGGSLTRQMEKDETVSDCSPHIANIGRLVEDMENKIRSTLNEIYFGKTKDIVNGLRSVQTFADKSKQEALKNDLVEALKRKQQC

[9] = biological target: T9, proteins displaced from immobilized biotin-Cmpd 1 pulldowns (U2OS cell lysate) (Homo sapiens, UniProt Q7Z2W4); details: GN=ZC3HAV1 (Q7Z2W4)
T9 construct: endogenous in cells; host or cells: U2OS
T9 sequence (Q7Z2W4 whole entry): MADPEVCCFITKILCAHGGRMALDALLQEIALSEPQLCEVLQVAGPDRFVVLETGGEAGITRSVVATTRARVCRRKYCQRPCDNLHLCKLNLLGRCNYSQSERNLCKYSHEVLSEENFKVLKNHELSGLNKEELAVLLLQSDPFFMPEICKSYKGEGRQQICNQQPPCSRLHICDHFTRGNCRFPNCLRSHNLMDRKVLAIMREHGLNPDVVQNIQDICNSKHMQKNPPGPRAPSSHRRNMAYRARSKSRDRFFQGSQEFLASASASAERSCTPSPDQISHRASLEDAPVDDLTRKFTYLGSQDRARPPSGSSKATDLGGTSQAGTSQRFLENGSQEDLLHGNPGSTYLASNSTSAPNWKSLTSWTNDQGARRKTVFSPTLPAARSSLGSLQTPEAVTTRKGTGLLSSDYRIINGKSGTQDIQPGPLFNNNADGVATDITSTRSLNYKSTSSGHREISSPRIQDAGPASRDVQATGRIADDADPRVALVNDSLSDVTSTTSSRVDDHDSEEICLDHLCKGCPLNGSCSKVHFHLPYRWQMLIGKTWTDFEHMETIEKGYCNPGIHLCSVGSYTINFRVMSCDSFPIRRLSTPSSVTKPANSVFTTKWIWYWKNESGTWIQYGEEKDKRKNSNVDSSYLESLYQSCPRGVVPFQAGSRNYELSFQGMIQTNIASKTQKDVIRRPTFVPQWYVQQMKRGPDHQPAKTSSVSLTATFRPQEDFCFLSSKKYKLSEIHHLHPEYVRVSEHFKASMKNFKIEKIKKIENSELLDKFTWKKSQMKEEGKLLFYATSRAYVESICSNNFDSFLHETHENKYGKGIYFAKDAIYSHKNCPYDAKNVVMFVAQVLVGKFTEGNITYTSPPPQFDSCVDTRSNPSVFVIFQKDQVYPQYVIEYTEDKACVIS

[10] = biological target: T10, proteins displaced from immobilized biotin-Cmpd 1 pulldowns (U2OS cell lysate) (Homo sapiens, UniProt P27797); details: GN=CALR (P27797)
T10 construct: endogenous in cells; host or cells: U2OS
T10 sequence (P27797 18-417): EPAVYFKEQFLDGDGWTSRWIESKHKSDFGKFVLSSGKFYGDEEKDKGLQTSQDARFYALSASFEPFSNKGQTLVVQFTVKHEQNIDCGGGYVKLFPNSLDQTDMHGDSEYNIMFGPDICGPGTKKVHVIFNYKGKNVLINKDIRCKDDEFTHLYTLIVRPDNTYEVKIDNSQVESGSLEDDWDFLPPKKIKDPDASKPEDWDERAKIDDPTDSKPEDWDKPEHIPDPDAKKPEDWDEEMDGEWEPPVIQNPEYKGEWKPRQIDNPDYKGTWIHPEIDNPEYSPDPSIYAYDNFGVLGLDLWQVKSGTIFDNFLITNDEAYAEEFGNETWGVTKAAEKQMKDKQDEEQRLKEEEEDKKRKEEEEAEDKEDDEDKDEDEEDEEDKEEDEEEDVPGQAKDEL

`Cn1c2c(c(=N)c3c1CCC3)CCC2` [Compound 1, 4-methyl-2,3,4,5,6,7-hexahydrodicyclopenta[b,e]pyridin-8(1H)-imine] was tested, and the Difference ([1]; Cmpd minus DMSO, -LOG(P-value) 0.846922) was 1.578, the “iBAQ Cmpd” value ([1]; replicates 1-3) was 17.3529 and 17.1229 and 16.9849 and the Difference ([2]; Cmpd minus DMSO, -LOG(P-value) 0.708043) was -1.888. The “iBAQ Cmpd” value ([2]; replicates 1-3) was 19.1406 and 20.1765 and 18.5823, the Difference ([3]; Cmpd minus DMSO, -LOG(P-value) 0.981964) was 1.653 and the “iBAQ Cmpd” value ([3]; replicates 1-3) was 17.9091 and 17.4238 and 17.5156. The Difference ([4]; Cmpd minus DMSO, -LOG(P-value) 0.798774) was 1.187, the “iBAQ Cmpd” value ([4]; replicates 1-3) was 19.58 and 17.8353 and 18.5748 and the Difference ([5]; Cmpd minus DMSO, -LOG(P-value) 1.30206) was -3.138. For the same molecule, the “iBAQ Cmpd” value ([5]; replicates 1-3) was 15.2988 and 15.7784 and 15.638, the Difference ([6]; Cmpd minus DMSO, -LOG(P-value) 1.46412) was -2.055 and the “iBAQ Cmpd” value ([6]; replicates 1-3) was 21.5375 and 20.6129 and 20.1927. For the same molecule, the Difference ([7]; Cmpd minus DMSO, -LOG(P-value) 1.29916) was 1.094, the “iBAQ Cmpd” value ([7]; replicates 1-3) was 21.1032 and 19.9004 and 20.5342 and the Difference ([8]; Cmpd minus DMSO, -LOG(P-value) 1.09295) was -1.787. The “iBAQ Cmpd” value ([8]; replicates 1-3) was 15.5737 and 16.3289 and 18.0803, the Difference ([9]; Cmpd minus DMSO, -LOG(P-value) 1.54428) was 1.228 and the “iBAQ Cmpd” value ([9]; replicates 1-3) was 18.1805 and 17.0719 and 17.7662. The Difference ([10]; Cmpd minus DMSO, -LOG(P-value) 1.31392) was 3.089 and the “iBAQ Cmpd” value ([10]; replicates 1-3) was 19.5486 and 19.2952 and 16.8093.
